Laboratory results as given in US20100173910A1, “TRIAMINOPYRIMIDINE CYCLOBUTENEDIONE DERIVATIVES USED AS PHOSPHATASE CDC25 INHIBITORS” (IPDRN PHSTMS D.S.S., priority 2007, published 2010).

How the values were obtained:
[1] = test system: DU 145 (human prostate carcinoma cells); assay: Anti-proliferative activity, DU 145 cells (WST1 colorimetric test); format: cell-based; conditions: DU-145, 96 h, 96 hours treatment, up to 10 μM, nested upper bounds, read-out: IC50 for proliferation of the DU 145 cell lines
Description: (§1) ii) Characterisation of Anti-Proliferative Activity:
(§2) By way of an example, the effect of treating two human cell lines MIA PaCa-2 and DU 145 with the compounds of the examples described hereinbefore will be studied. The cell lines DU 145 (human prostate carcinoma cells) and MIA PaCa-2 (human pancreatic carcinoma cells) were obtained from the American Tissue Culture Collection (Rockville, Md., USA). A 96-well plate was inoculated on day 0 with cells in 80 μl of Dulbecco's modified Eagle's medium (Gibco-Brl, Cergy-Pontoise, France) with 10% heat-inactivated foetal calf serum (Gibco-Brl, Cergy-Pontoise, France), 50,000 units/l of penicillin and 50 mg/l of streptomycin (Gibco-Brl, Cergy-Pontoise, France) and 2 mM of glutamine (Gibco-Brl, Cergy-Pontoise, France). The cells were treated on day 1 for 96 hours with increasing concentrations of each test compound up to 10 μM. At the end of this period, cell proliferation is quantified by means of a colorimetric test based on cleavage of the tetrazolium salt WST1 by the mitochondrial dehydrogenases in the viable cells, resulting in formation of formazan (Boehringer Mannheim, Meylan, France). These tests are performed in duplicate with 8 determinations per concentration tested. For each test compound, the values within the linear part of the sigmoid curve were subjected to linear regression analysis and used to estimate the IC50 inhibitory concentration. The products are solubilised in dimethylsulfoxide (DMSO) at a concentration of 10^−2 M and used in culture with a final DMSO concentration of 0.1%.

[2] = test system: MIA PaCa-2 (human pancreatic carcinoma cells); assay: Anti-proliferative activity, MIA PaCa-2 cells (WST1 colorimetric test); format: cell-based; conditions: MIA PaCa-2, 96 h, 96 hours treatment, up to 10 μM, nested upper bounds, read-out: IC50 for proliferation of the MIA PaCa-2 cell lines
Description: as §1, §2

[3] = biological target: T1, purified recombinant CDC25C enzyme (MBP-CDC25C protein) (Homo sapiens, UniProt P30307); assay: Phosphatase activity of the purified recombinant CDC25C enzyme (OMFP dephosphorylation, fluorescence); format: biochemical; conditions: OMFP 500 μM, 4 hours at 30° C., three independent experiments; nested upper bounds; read-out: IC50 for the phosphatase activity of the purified recombinant CDC25-C enzyme
T1 construct: made in house
T1 sequence (P30307 1-473): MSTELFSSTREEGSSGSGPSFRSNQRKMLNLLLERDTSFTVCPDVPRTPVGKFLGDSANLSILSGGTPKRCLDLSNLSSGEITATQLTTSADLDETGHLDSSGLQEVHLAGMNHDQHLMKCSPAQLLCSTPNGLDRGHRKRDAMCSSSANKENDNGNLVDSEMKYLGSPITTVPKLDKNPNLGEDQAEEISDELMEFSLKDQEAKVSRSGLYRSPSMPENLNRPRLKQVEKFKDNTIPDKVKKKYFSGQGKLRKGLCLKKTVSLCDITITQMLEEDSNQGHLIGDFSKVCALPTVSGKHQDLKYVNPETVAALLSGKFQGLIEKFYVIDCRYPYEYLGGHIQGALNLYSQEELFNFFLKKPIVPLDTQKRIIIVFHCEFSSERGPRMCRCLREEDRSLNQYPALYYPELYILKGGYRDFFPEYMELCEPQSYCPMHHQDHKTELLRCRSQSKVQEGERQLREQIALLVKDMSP
Description: i) Determination of the Phosphatase Activity of the Purified Recombinant CDC25C Enzyme:
The phosphatase activity of the MBP-CDC25C protein is evaluated through its dephosphorylation of 3-O-methylfluorescein-phosphate (OMFP) to form 3-O-methylfluorescein (OMF), determining the fluorescence of the reaction product at 475 nm. This assay can be used to identify inhibitors of the recombinant CDC25 enzyme. The preparation of the MBP-CDC25C fusion protein is described in the PCT patent application published under the number WO 01/44467.
The reaction is performed in 384-well plates in a final volume of 50 μl. The MBP-CDC25C protein (prepared as described hereinabove) is stored in the following elution buffer: 20 mM Tris-HCl pH 7.4; 250 mM NaCl; 1 mM EDTA; 1 mM dithiothreitol (DTT); 10 mM maltose. It is diluted to a concentration of 60 μM in the following reaction buffer: 50 mM Tris-HCl pH 8.2; 50 mM NaCl; 1 mM DTT; 20% glycerol. The background noise is determined using with the buffer without adding the enzyme. The products are tested at decreasing concentrations from 40 μM. The reaction is initiated by the addition of OMFP solution to a final concentration of 500 μM (prepared immediately before use from a 12.5 mM stock solution in 100% DMSO (Sigma #M2629)). After 4 hours at 30° C. in a disposable 384-well plate, the fluorescence measured at OD 475 nm is read on a Victor^2 plate reader (EGG-Wallac). The concentration that produces 50% inhibition of the enzyme reaction is calculated from three independent experiments. Only the values that fall within the linear part of the sigmoid curve are used for the linear regression analysis.

SMILES	melting point [°C]	IC50 [1] [µM]	IC50 [2] [µM]	IC50 [3] [µM]
O=c1c(NCCNc2cc(N3CCCC3)nc(N3CCCC3)n2)c(NCc2ccc(Cl)cc2)c1=O [Example 5, 3-[(4-chlorobenzyl)amino]-4-({2-[(2,6-dipyrrolidin-1-ylpyrimidin-4-yl)amino]ethyl}amino)cyclobut-3-ene-1,2-dione]	246 to 248	≤ 10	≤ 10	≤ 1
CN(CCNc1cc(N2CCCC2)nc(N2CCCC2)n1)CCNc1c(Nc2ccc(Cl)cc2)c(=O)c1=O [Example 8, 3-[(4-chlorophenyl)amino]-4-({2-[{2-[(2,6-dipyrrolidin-1-ylpyrimidin-4-yl)amino]ethyl}(methyl)amino]ethyl}amino)cyclobut-3-ene-1,2-dione]	144 to 146	≤ 10	≤ 10	≤ 5
O=c1c(NCCNc2cc(N3CCCC3)nc(N3CCCC3)n2)c(Nc2ccc(Cl)c(C(F)(F)F)c2)c1=O [Example 10, 3-{[4-chloro-3-(trifluoromethyl)phenyl]amino}-4-({2-[(2,6-dipyrrolidin-1-ylpyrimidin-4-yl)amino]ethyl}amino)cyclobut-3-ene-1,2-dione]	216 to 218	≤ 10	≤ 10	≤ 15
O=c1c(NCCNc2cc(N3CCCC3)nc(N3CCCC3)n2)c(Nc2cc(F)cc(F)c2)c1=O [Example 15, 3-[(3,5-difluorophenyl)amino]-4-({2-[(2,6-dipyrrolidin-1-ylpyrimidin-4-yl)amino]ethyl}amino)cyclobut-3-ene-1,2-dione]	192 to 194	≤ 10	–	≤ 1
O=c1c(NCCNc2cc(N3CCCC3)nc(N3CCCC3)n2)c(Nc2cccc(Cl)c2)c1=O [Example 17, 3-[(3-chlorophenyl)amino]-4-({2-[(2,6-dipyrrolidin-1-ylpyrimidin-4-yl)amino]ethyl}amino)cyclobut-3-ene-1,2-dione]	209 to 211	≤ 10	≤ 10	≤ 5
COc1ccc(Nc2c(NCCNc3cc(N4CCCC4)nc(N4CCCC4)n3)c(=O)c2=O)cc1 [Example 18, 3-({2-[(2,6-dipyrrolidin-1-ylpyrimidin-4-yl)amino]ethyl}amino)-4-[(4-methoxyphenyl)amino]cyclobut-3-ene-1,2-dione]	235 to 237	≤ 10	≤ 10	≤ 1
CC(=O)c1ccc(Nc2c(NCCNc3cc(N4CCCC4)nc(N4CCCC4)n3)c(=O)c2=O)cc1 [Example 19, 3-[(4-acetylphenyl)amino]-4-({2-[(2,6-dipyrrolidin-1-ylpyrimidin-4-yl)amino]ethyl}amino)cyclobut-3-ene-1,2-dione]	186 to 188	≤ 10	≤ 10	≤ 1
COc1cccc(Nc2c(NCCNc3cc(N4CCCC4)nc(N4CCCC4)n3)c(=O)c2=O)c1 [Example 20, 3-({2-[(2,6-dipyrrolidin-1-ylpyrimidin-4-yl)amino]ethyl}amino)-4-[(3-methoxyphenyl)amino]cyclobut-3-ene-1,2-dione]	205 to 207	≤ 10	≤ 10	≤ 5
CN(Cc1ccc(Nc2c(NCCNc3cc(N4CCCC4)nc(N4CCCC4)n3)c(=O)c2=O)cc1)C(=O)OC(C)(C)C [Example 21, tert-butyl (4-{[2-({2-[(2,6-dipyrrolidin-1-ylpyrimidin-4-yl)amino]ethyl}amino)-3,4-dioxocyclobut-1-en-1-yl]amino}benzyl)methylcarbamate]	–	≤ 10	≤ 10	≤ 1
O=c1c(NCCNc2cc(N3CCCC3)nc(N3CCCC3)n2)c(Nc2ccc(C3CCCCC3)cc2)c1=O [Example 23, 3-[(4-cyclohexylphenyl)amino]-4-({2-[(2,6-dipyrrolidin-1-ylpyrimidin-4-yl)amino]ethyl}amino)cyclobut-3-ene-1,2-dione]	218 to 220	≤ 10	≤ 10	≤ 5
CCCc1ccc(Nc2c(NCCNc3cc(N4CCCC4)nc(N4CCCC4)n3)c(=O)c2=O)cc1 [Example 24, 3-({2-[(2,6-dipyrrolidin-1-ylpyrimidin-4-yl)amino]ethyl}amino)-4-[(4-propylphenyl)amino]cyclobut-3-ene-1,2-dione]	–	≤ 10	≤ 10	≤ 1
CC(C)(C)OC(=O)NCc1ccc(Nc2c(NCCNc3cc(N4CCCC4)nc(N4CCCC4)n3)c(=O)c2=O)cc1 [Example 25, tert-butyl (4-{[2-({2-[(2,6-dipyrrolidin-1-ylpyrimidin-4-yl)amino]ethyl}amino)-3,4-dioxocyclobut-1-en-1-yl]amino}benzyl)carbamate]	176 to 180	≤ 10	≤ 10	≤ 1
O=c1c(NCCNc2cc(N3CCCC3)nc(N3CCCC3)n2)c(Nc2ccc3c(c2)OCO3)c1=O [Example 26, 3-(1,3-benzodioxol-5-ylamino)-4-({2-[(2,6-dipyrrolidin-1-ylpyrimidin-4-yl)amino]ethyl}amino)cyclobut-3-ene-1,2-dione]	180 to 190	≤ 10	≤ 10	≤ 1
CC(C)(C)OC(=O)NCCc1ccc(Nc2c(NCCNc3cc(N4CCCC4)nc(N4CCCC4)n3)c(=O)c2=O)cc1 [Example 29, tert-butyl [2-(4-{[2-({2-[(2,6-dipyrrolidin-1-ylpyrimidin-4-yl)amino]ethyl}amino)-3,4-dioxocyclobut-1-en-1-yl]amino}phenyl)ethyl]carbamate]	216 to 218	≤ 10	≤ 10	≤ 1
O=c1c(NCCNc2cc(N3CCCC3)nc(N3CCCC3)n2)c(Nc2ccc(C(F)(F)F)cc2)c1=O [Example 32, 3-({2-[(2,6-dipyrrolidin-1-ylpyrimidin-4-yl)amino]ethyl}amino)-4-{[4-(trifluoromethyl)phenyl]amino}cyclobut-3-ene-1,2-dione]	> 250	≤ 10	–	≤ 1
O=c1c(NCCNc2cc(N3CCCC3)nc(N3CCCC3)n2)c(Nc2ccc([N+](=O)[O-])cc2)c1=O [Example 34, 3-({2-[(2,6-dipyrrolidin-1-ylpyrimidin-4-yl)amino]ethyl}amino)-4-[(4-nitrophenyl)amino]cyclobut-3-ene-1,2-dione]	–	≤ 10	–	≤ 1
O=c1c(NCCNc2cc(N3CCCC3)nc(N3CCCC3)n2)c(Nc2ccc(Cl)c(F)c2)c1=O [Example 36, 3-[(4-chloro-3-fluorophenyl)amino]-4-({2-[(2,6-dipyrrolidin-1-ylpyrimidin-4-yl)amino]ethyl}amino)cyclobut-3-ene-1,2-dione]	–	≤ 10	–	≤ 1
